We go through three compounds from patent US20250205199A1, “5-METHOXY-N,N-[…][…] THE TREATMENT OF SOCIAL/EMOTIONAL […] DETACHMENT” (GH RESEARCH IRELAND LIMITED, priority 2022, published 2025).

The conditions of data set [1]: oral; cited from earlier work.
The nature of data set [2]: Pharmacokinetics of 5-MeO-DMT and bufotenine after inhalation. In kind it is in vivo, human. The note with it: uptitration scheme. As for the experimental part:
This applies over the whole dose range tested (6 mg, 12 mg, 18 mg). […] Uptitration as disclosed herein will not lead to accumulation and thus not to higher plasma concentrations, for instance, 10 minutes, 2 hours, or 3 hours after administration.
Blood samples were obtained at 1; 2; 4; 7; 10; 15; 20; 30; 45 min and 1; 1.5; 2; 3; 4 hours after administration.
PK parameters were generated by algebraic analysis of the concentration versus time plots for each individual. The analysis was carried out using the software Phoenix WinNonlin 6.3.

Data set [3] deals with patients with treatment resistant bipolar depression. The conditions noted are these: single 0.5 mg·kg^−1 infusion; cited from earlier work.

As for `CCN(CC)C(=O)[C@@H]1C=C2c3cccc4[nH]cc(c34)C[C@H]2N(C)C1` [LSD, lysergic acid diethylamide], in data set [1], the “Duration of acute psychedelic effects” value is “several hours”.

Turning to `CN(C)CCc1c[nH]c2ccc(O)cc12` [bufotenine], the “Bufotenine concentrations when subjects receiving an uptitration scheme were included” value in data set [2] is given as “Substantially similar observations”.

Take `CNC1(c2ccccc2Cl)CCCCC1=O` (stereo not shown) [ketamine]: in data set [3], the “Duration of the anti-anhedonic effect” value is “up to 14 days” and the “Time until decrease of anhedonia took effect” value was no more than 40 min.
